# Measurements reported in paper PMC11677126, “Synthesis and Structure–Activity Relationship of Thiourea Derivatives Against Leishmania amazonensis” (Pharmaceuticals, 2024).
# How the values were obtained:
# [1] = test system: Leishmania infantum amastigotes; set-up: method as in PMID 30782984; conditions: cited from earlier work
# [2] = test system: Leishmania major promastigotes; set-up: method as in PMID 36001225; conditions: after 48 h (text b28); cited from earlier work
# [3] = test system: L. amazonensis promastigote; assay: Antipromastigote assay (resazurin fluorescence); type: cell-based, Leishmania amazonensis; conditions: promastigotes, 72 h at 26 °C
# Experimental: The fluorescence was measured using a Spectra Max GEMINI XPS spectrofluorometer (Molecular Devices, Silicon Valley, CA, USA) at excitation and emission wavelengths of 560 nm and 590 nm, respectively.
# [4] = test system: L. amazonensis intracellular amastigotes; assay: Antiamastigote assay in infected peritoneal macrophages (infection index); type: cell-based; conditions: Leishmania amazonensis, Peritoneal macrophage, 72 h
# Experimental: Resident macrophages from BALB/c mice were obtained by peritoneal lavage with 5 mL of cold RPMI medium. The cell suspension was adjusted to a 2 × 10^6 cells/mL concentration and plated in LAB-TEK chambers. After 1 h, the cultures were washed with phosphate-buffered saline at 37 °C to remove non-adherent cells. The remaining cells were incubated at 37 °C/5% CO2 with promastigotes of L. amazonensis at a ratio of 3:1. After 3 h, the chambers were rewashed to remove free parasites. […] For G2, we first tested only at a concentration of 10 µM, and derivatives with inhibition above 60% were evaluated using the dose–response curve. The antiamastigote activity was evaluated microscopically after staining the chambers with the Instant Prov hematological dye system (Newprov, Curitiba, Brazil); at least 100 macrophages were counted per sample. The results were expressed as the infection index (IF) using the following formula: IF = % infected cells X (number of amastigotes/total macrophages). The IC50 value was determined by nonlinear regression using Graph Pad Prism 9.0.
# [5] = Toxicity assay in murine macrophages (resazurin); type: cell-based; conditions: BALB/c, mouse, mouse peritoneal macrophages
# Experimental: Mouse peritoneal macrophages (2 × 10^6 cells/mL) in 96-well plates were treated with different concentrations of thiourea compounds (G1: 0–400 µM and G2: 0–125 µM) for 72 h at 37 °C/5% CO2. After removing the supernatant, viable cells were quantified by adding resazurin in phosphate-buffered saline, a final concentration of 50 µM, and then the samples were incubated for an additional 3 h. The fluorescence was measured using a Spectra Max GEMINI XPS spectrofluorometer (Molecular Devices, Silicon Valley, CA, USA) at excitation and emission wavelengths of 560 nm and 590 nm, respectively. The percentage of viable cells was calculated relative to the control cells. The cytotoxic concentrations lethal to 50% of the cells (CC50) were obtained by nonlinear regression of the sigmoid growth curves using the Graph Pad Prism 9.0 software.
# [6] = test system: L. amazonensis promastigotes; set-up: method as in doi:10.5897/JMA2013.0261; conditions: L. amazonensis promastigotes (text b27); cited from earlier work
# [7] = test system: Leishmania amazonensis amastigotes; set-up: method as in PMID 28966275; conditions: read-out: IC50 (amastigote); cited from earlier work
# [8] = Leishmania amazonensis, 72 h, G1 thioureas, maximum concentration tested 100 µM
# [9] = Leishmania amazonensis, 72 h, G2 piperazine thioureas
# [10] = G1 thioureas, maximum concentration tested 25 µM
# [11] = G2 piperazine thioureas, maximum concentration tested 10 µM, unit from footnote
# [12] = G1 thioureas, maximum concentration tested 100 µM
# [13] = G2 piperazine thioureas, 0–125 µM
Molecule,"IC50 [3, 8] [µM]","IC50 [3, 9] [µM]",further results
CCCCNC(=S)Nc1ccc([Se][Se]c2ccc(NC(=S)NCCCC)cc2)cc1 [Compound 10],–,–,IC50 [1]: 2.36 ± 0.44 µM
Cc1sc(NC(=S)NC(=O)C2CC2)nc1-c1ccccc1 [Compound 11],–,–,IC50 [2]: 122 ± 1.41 µM
"CCCCCCCCCCCCCCCCOP(=O)([O-])OCC[N+](C)(C)C [Miltefosine, reference compound]",6.9 ± 2.4,6.9 ± 2.4,"IC50 [4, 10]: 7.5 ± 1.2 µM; IC50 [4, 11]: 7.5 ± 1.2 µM; IC50 [1]: 2.84 ± 0.1 µM"
S=C(Nc1ccccc1)N1CCOCC1 [Thiourea 3a],> 100,–,–
COc1cc(NC(=S)Nc2nnc(C(F)(F)F)s2)cc(OC)c1OC [Thiourea 3a′],77.8 ± 6.7,–,–
S=C(NCc1ccccc1)N1CCOCC1 [Thiourea 3b],> 100,–,–
CCCCNC(=S)Nc1cc(OC)c(OC)c(OC)c1 [Thiourea 3b′],> 100,–,–
S=C(NCCc1ccccc1)N1CCOCC1 [Thiourea 3c],> 100,–,–
S=C(Nc1ccccc1)Nc1ccccn1 [Thiourea 3d],–,–,"IC50 [4, 10]: 10.8 ± 2.4 µM; CC50 at 72 h ([5]; G1 thioureas, 0–400 µM): > 400 µM"
S=C(NCc1ccccc1)Nc1ccccn1 [Thiourea 3e],< 50,–,"IC50 [3, 12]: 25.4 ± 8.3 µM; CC50 at 72 h ([5]; G1 thioureas, 0–400 µM): > 400 µM"
S=C(NCCc1ccccc1)Nc1ccccn1 [Thiourea 3f],> 100,–,–
COc1ccc(NC(=S)Nc2ccccc2)cc1 [Thiourea 3g],> 100,–,–
COc1ccc(NC(=S)NCc2ccccc2)cc1 [Thiourea 3h],61.6 ± 6.5,–,–
COc1ccc(NC(=S)NCc2ccccc2)cc1OC [Thiourea 3i],> 100,–,–
COc1ccc(NC(=S)NCCc2ccccc2)cc1OC [Thiourea 3j],> 100,–,–
COc1cc(NC(=S)NCc2ccccc2)cc(OC)c1 [Thiourea 3k],> 100,–,–
COc1cc(NC(=S)NCCc2ccccc2)cc(OC)c1 [Thiourea 3l],> 100,–,–
COc1cc(NC(=S)NCCc2ccccc2)cc(OC)c1OC [Thiourea 3m],> 100,–,–
O=C(NNC(=S)NCc1ccccc1)c1ccccc1 [Thiourea 3o],80.4 ± 10,–,–

Molecule,"IC50 [3, 8] [µM]","IC50 [3, 9] [µM]",further results
S=C(Nc1ccccc1)Nc1ccc(Br)cc1 [Thiourea 3p],< 50,–,"IC50 [3, 12]: 32.9 ± 9.5 µM; IC50 [4, 10]: 8.7 ± 1.4 µM; CC50 at 72 h ([5]; G1 thioureas, 0–400 µM): > 400 µM"
S=C(NCc1ccccc1)Nc1ccc(Br)cc1 [Thiourea 3q],< 50,–,"IC50 [3, 12]: 44.4 ± 10.6 µM; IC50 [4, 10]: > 25 µM; CC50 at 72 h ([5]; G1 thioureas, 0–400 µM): > 400 µM"
Cc1nnc(NC(=S)Nc2ccccc2)s1 [Thiourea 3r],65.8 ± 8.2,–,–
CCc1nnc(NC(=S)NCc2ccccc2)s1 [Thiourea 3s],58.4 ± 1.9,–,–
CCCCNC(=S)Nc1ccccc1 [Thiourea 3t],60 ± 6.4,–,–
Cc1ccccc1NC(=S)NCc1ccccc1 [Thiourea 3u],56.2 ± 4.2,–,–
Oc1cccc(NC(=S)NCc2ccccc2)c1 [Thiourea 3v],> 100,–,–
CN(C[C@H](O)[C@@H](O)[C@H](O)[C@H](O)CO)C(=S)NCc1ccccc1 [Thiourea 3w],> 100,–,–
COc1cc(NC(=S)N2CCOCC2)cc(OC)c1OC [Thiourea 3x],> 100,–,–
COc1cc(NC(=S)Nc2ccccn2)cc(OC)c1OC [Thiourea 3y],> 100,–,–
COc1ccc(NC(=S)Nc2cc(OC)c(OC)c(OC)c2)cc1OC [Thiourea 3z],> 100,–,–
O=C(C1CCCO1)N1CCN(C(=S)Nc2ccccc2)CC1 (stereo not drawn) [Thiourea 5a],–,> 128,–
O=C(C1CCCO1)N1CCN(C(=S)NCc2ccccc2)CC1 (stereo not drawn) [Thiourea 5b],–,77.5 ± 4.5,–
O=C(C1CCCO1)N1CCN(C(=S)NCCc2ccccc2)CC1 (stereo not drawn) [Thiourea 5c],–,> 128,–
S=C(Nc1ccccc1)N1CCN(Cc2ccc3c(c2)OCO3)CC1 [Thiourea 5d],–,90.2 ± 2.9,–
S=C(NCc1ccccc1)N1CCN(Cc2ccc3c(c2)OCO3)CC1 [Thiourea 5e],–,30.3 ± 4.6,"IC50 [4, 11]: > 10 µM; CC50 at 72 h [5, 13]: 122 ± 2.8 µM"
S=C(NCCc1ccccc1)N1CCN(Cc2ccc3c(c2)OCO3)CC1 [Thiourea 5f],–,> 128,–
S=C(Nc1ccccc1)N1CCN(C(c2ccccc2)c2ccccc2)CC1 [Thiourea 5g],–,30.7 ± 3.2,"IC50 [4, 11]: > 10 µM; CC50 at 72 h [5, 13]: > 125 µM"
S=C(NCc1ccccc1)N1CCN(C(c2ccccc2)c2ccccc2)CC1 [Thiourea 5h],–,7.9 ± 1.9,"IC50 [4, 11]: 8.8 ± 3.5 µM; CC50 at 72 h [5, 13]: > 125 µM"

Molecule,"IC50 [3, 8] [µM]","IC50 [3, 9] [µM]",further results
S=C(NCCc1ccccc1)N1CCN(C(c2ccccc2)c2ccccc2)CC1 [Thiourea 5i],–,6.9 ± 2,"IC50 [4, 11]: 1.8 ± 0.5 µM; CC50 at 72 h [5, 13]: > 125 µM"
S=C(Nc1ccccc1)N1CCN(c2ccccc2Cl)CC1 [Thiourea 5j],–,> 128,–
S=C(NCc1ccccc1)N1CCN(c2ccccc2Cl)CC1 [Thiourea 5k],–,30.7 ± 3,"IC50 [4, 11]: > 10 µM; CC50 at 72 h [5, 13]: 68.3 ± 2.8 µM"
S=C(NCCc1ccccc1)N1CCN(c2ccccc2Cl)CC1 [Thiourea 5l],–,28.2 ± 2.5,"IC50 [4, 11]: > 10 µM; CC50 at 72 h [5, 13]: 79.5 ± 19.8 µM"
COc1ccc(CN2CCN(C(=S)Nc3ccccc3)CC2)c(OC)c1OC [Thiourea 5m],–,> 128,–
COc1ccc(CN2CCN(C(=S)NCc3ccccc3)CC2)c(OC)c1OC [Thiourea 5n],–,42.5 ± 1.6,"IC50 [4, 11]: > 10 µM; CC50 at 72 h [5, 13]: 88.3 ± 5.6 µM"
COc1ccc(CN2CCN(C(=S)NCCc3ccccc3)CC2)c(OC)c1OC [Thiourea 5o],–,> 128,–
S=C(Nc1ccccc1)N1CCN(c2nc3ccccc3[nH]2)CC1 [Thiourea 5p],–,> 128,–
S=C(NCCc1ccccc1)N1CCN(c2nc3ccccc3[nH]2)CC1 [Thiourea 5q],–,18.8 ± 3.1,"IC50 [4, 11]: > 10 µM; CC50 at 72 h [5, 13]: 72.9 ± 32.2 µM"
COc1cc(NC(=S)N2CCN(C(=O)C3CCCO3)CC2)cc(OC)c1OC (stereo not drawn) [Thiourea 5r],–,> 128,–
COc1cc(NC(=S)N2CCN(Cc3ccc4c(c3)OCO4)CC2)cc(OC)c1OC [Thiourea 5s],–,> 128,–
COc1cc(NC(=S)N2CCN(C(c3ccccc3)c3ccccc3)CC2)cc(OC)c1OC [Thiourea 5t],–,22.3 ± 1.6,"IC50 [4, 11]: 4.9 ± 1.2 µM; CC50 at 72 h [5, 13]: 81.3 ± 16.9 µM"
COc1cc(NC(=S)N2CCN(c3ccccc3Cl)CC2)cc(OC)c1OC [Thiourea 5u],–,> 128,–
COc1cc(NC(=S)N2CCN(Cc3ccc(OC)c(OC)c3OC)CC2)cc(OC)c1OC [Thiourea 5v],–,> 128,–
CCOC(=O)c1ccc(NC(N)=S)cc1 [Thiourea 9],–,–,IC50 [6]: 45 µM
C[C@@H]1[C@H](O)[C@@H](C)/C=C/C=C/C=C/C=C/C=C/C=C/C=C/[C@H](O[C@@H]2O[C@H](C)[C@@H](O)[C@H](N)[C@@H]2O)C[C@@H]2O[C@](O)(C[C@@H](O)C[C@@H](O)[C@H](O)CC[C@@H](O)C[C@@H](O)CC(=O)O[C@H]1C)C[C@H](O)[C@H]2C(=O)O [amphotericin B],–,–,IC50 [2]: 0.2 ± 0.01 µM
N=C(N)c1ccc(OCCCCCOc2ccc(C(=N)N)cc2)cc1 [pentamidine],–,–,IC50 [6]: 0.46 µM
meglumine antimoniate,–,–,IC50 [7]: 212 µM
